# Patent US9187467B2, “2-phenyl benzothiazole linked imidazole compounds as potential anticancer agents and process for the preparation thereof” (Council of Scientific and Industrial Research, priority 2012, dated 2015)
# Where two headings read alike, the source gives them in different places.
# How the values were obtained:
# HL-60 (TB) = experiment: SRB anticancer assay, leukemia; format: cell-based, human; design: Log10GI50: unit not given here; details: for GI50: Homo sapiens, HL-60, 48 h
# SR = experiment: SRB anticancer assay, leukemia; format: cell-based, human; details: Homo sapiens, 48 h
# NCI-H226 = experiment: SRB anticancer assay, non-small lung; format: cell-based, human; details: Homo sapiens, NCI-H226, 48 h
# NCI-H23 = experiment: SRB anticancer assay, non-small lung; format: cell-based, human; details: for GI50: Homo sapiens, NCI-H23, 48 h
# NCI-H460 = experiment: SRB anticancer assay, non-small lung; format: cell-based, human; details: Homo sapiens, NCI-H460, 48 h
# HCT-116 = experiment: SRB anticancer assay, colon; format: cell-based, human; details: Homo sapiens, HCT-116, 48 h
# SNB-75 = experiment: SRB anticancer assay, CNS; format: cell-based, human; design: Log10GI50: unit not given here; details: for GI50: Homo sapiens, SNB-75, 48 h
# U251 = experiment: SRB anticancer assay, CNS; format: cell-based, human; design: Log10GI50: unit not given here; details: for GI50: Homo sapiens, U-251, U251, 48 h
# IGROV1 = experiment: SRB anticancer assay, ovarian; format: cell-based, human; details: Homo sapiens, IGROV-1; IGROV1, 48 h
# OVCAR-3 = experiment: SRB anticancer assay, ovarian; format: cell-based, human; design: Log10GI50: unit not given here; details: for GI50: Homo sapiens, OVCAR-3, 48 h
# OVCAR-4 = experiment: SRB anticancer assay, ovarian; format: cell-based, human; details: Homo sapiens, OVCAR-4, 48 h
# NCI/ADR-RES = experiment: SRB anticancer assay, ovarian; format: cell-based, human; design: Log10GI50: unit not given here; details: for GI50: Homo sapiens, NCI/ADR-RES, 48 h; for Log10GI50: present compounds
# A498 = experiment: SRB anticancer assay, renal; format: cell-based, human; design: Log10GI50: unit not given here; details: for GI50: Homo sapiens, A498, 48 h
# SN12C = experiment: SRB anticancer assay, renal; format: cell-based, human; design: Log10GI50: unit not given here; details: for GI50: Homo sapiens, 48 h
# UO-31 = experiment: SRB anticancer assay, renal; format: cell-based, human; design: Log10GI50: unit not given here; details: for GI50: Homo sapiens, UO-31, 48 h
# T-47D = experiment: SRB anticancer assay, breast; format: cell-based; details: Homo sapiens, T47D, 48 h
# Breast cancer cell lines = experiment: SRB anticancer assay, panel result; format: cell-based, human; details: for mean graph midpoint value (MG_MID) of log10 TGI: total inhibition of net cell growth; for CC50 / GI50: Homo sapiens; for CC50: 50% net cell death, read-out: mean graph midpoint value (MG_MID) of Log10 LC50 (converted)
# How it was run: (§1)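 Sulforhodamine B protein staining after 48 h continuous drug exposure gave growth/viability readings. Dose–response covered a minimum of five 10-fold-spaced concentrations across sixty human cancer lines from nine tumour types.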
# Colon cancer cell lines = experiment: SRB anticancer assay, panel result; format: cell-based, human; details: for mean graph midpoint value (MG_MID) of log10 TGI: total inhibition of net cell growth; for LC50 / GI50: Homo sapiens; for LC50: 50% net cell death, read-out: mean graph midpoint value (MG_MID) of Log10 LC50 (converted)
# How it was run: as §1
# [1] = system: Melanoma cancer cell lines; experiment: SRB anticancer assay, panel result; format: cell-based, human; details: for LC50 / GI50: Homo sapiens; for LC50: 50% net cell death, read-out: mean graph midpoint value (MG_MID) of Log10 LC50 (converted); for mean graph midpoint value (MG_MID) of log10 TGI: total inhibition of net cell growth
# How it was run: as §1
# [2] = system: Non-small cell lung cancer cell lines; experiment: SRB anticancer assay, panel result; format: cell-based, human; details: for LC50 / GI50: Homo sapiens; for LC50: 50% net cell death, read-out: mean graph midpoint value (MG_MID) of Log10 LC50 (converted); for mean graph midpoint value (MG_MID) of log10 TGI: total inhibition of net cell growth
# How it was run: as §1
# [3] = system: Ovarian cancer cell lines; experiment: SRB anticancer assay, panel result; format: cell-based, human; details: for LC50 / GI50: Homo sapiens; for LC50: 50% net cell death, read-out: mean graph midpoint value (MG_MID) of Log10 LC50 (converted); for mean graph midpoint value (MG_MID) of log10 TGI: total inhibition of net cell growth
# How it was run: as §1
# [4] = system: Prostate cancer cell lines; experiment: SRB anticancer assay, panel result; format: cell-based, human; details: for LC50 / GI50: Homo sapiens; for LC50: 50% net cell death, read-out: mean graph midpoint value (MG_MID) of Log10 LC50 (converted); for mean graph midpoint value (MG_MID) of log10 TGI: total inhibition of net cell growth
# How it was run: as §1
# Renal cancer cell lines = experiment: SRB anticancer assay, panel result; format: cell-based, human; details: for CC50 / GI50: Homo sapiens; for CC50: 50% net cell death, read-out: mean graph midpoint value (MG_MID) of Log10 LC50 (converted); for mean graph midpoint value (MG_MID) of log10 TGI: total inhibition of net cell growth
# How it was run: as §1
# K562 (Leukemia) cells = experiment: Cell cycle distribution by flow cytometry; format: cell-based
# How it was run: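 Compound-treated K562 cells analysed for cell-cycle distribution by flow cytometry; values given as % of cells.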
# [5] = system: MCF-7 (Breast carcinoma) cells; experiment: Cell cycle distribution by flow cytometry (FACS); format: cell-based; details: MCF-7 cells, 2 μM, 24h
# How it was run: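 MCF-7 cells treated with compound at 2 μM for 24h, DMSO (0.25%) as control. Cell cycle distribution read by flow cytometry.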
# [6] = Breast panel, read-out: mean graph midpoint value (MG_MID) of Log10 GI50 (converted)
# [7] = six breast cancer cell lines, exposure at least 48 h, read-out: GI50, range over the panel
# [8] = Colon panel, read-out: mean graph midpoint value (MG_MID) of Log10 GI50 (converted)
# [9] = seven colon cancer cell lines, exposure at least 48 h, read-out: GI50, range over the panel
# [10] = Melanoma panel, read-out: mean graph midpoint value (MG_MID) of Log10 GI50 (converted)
# [11] = nine melanoma cancer cell lines, exposure at least 48 h, read-out: GI50, range over the panel
# [12] = Non-small cell lung panel, read-out: mean graph midpoint value (MG_MID) of Log10 GI50 (converted)
# [13] = nine Non-small cell lung cancer cell lines, exposure at least 48 h, read-out: GI50, range over the panel
# [14] = Ovarian panel, read-out: mean graph midpoint value (MG_MID) of Log10 GI50 (converted)
# [15] = seven ovarian cancer cell lines, exposure at least 48 h, read-out: GI50, range over the panel
# [16] = Prostate panel, read-out: mean graph midpoint value (MG_MID) of Log10 GI50 (converted)
# [17] = two prostate cancer cell lines (PC-3, DU-145), exposure at least 48 h, read-out: GI50, range over the panel
# [18] = Renal panel, read-out: mean graph midpoint value (MG_MID) of Log10 GI50 (converted)
# [19] = eight renal cancer cell lines, exposure at least 48 h, read-out: GI50, range over the panel
smiles,measurement,setting,value
"COc1cc(OC)c2sc(-c3ccc(-n4cncc4-c4ccc(OC)c(OC)c4)cc3)nc2c1 [Compound 6e, 2-(4-(5-(3,4-Dimethoxyphenyl)-1H-imidazol-1-yl)phenyl)-5,7-dimethoxybenzo[d]thiazole]",GI50,HL-60 (TB),3.09 µM
same,GI50,SR,3.03 µM
same,GI50,NCI-H226,6.44 µM
same,GI50,NCI-H23,> 100 µM
same,GI50,NCI-H460,6.06 µM
same,GI50,HCT-116,5.48 µM
same,GI50,SNB-75,7.21 µM
same,GI50,U251,9.19 µM
same,GI50,IGROV1,56.1 µM
same,GI50,OVCAR-3,3.85 µM
same,GI50,OVCAR-4,4.21 µM
same,GI50,NCI/ADR-RES,> 100 µM
same,GI50,A498,2.15 µM
same,GI50,SN12C,> 100 µM
same,GI50,UO-31,31.7 µM
same,GI50,T-47D,4.15 µM
same,mean graph midpoint value (MG_MID) of log10 TGI,Breast cancer cell lines; Breast panel,>−4.0
same,CC50,Breast cancer cell lines; Breast panel,> 100 µM
same,GI50,Breast cancer cell lines; [6],7.41 µM
same,GI50,Breast cancer cell lines; [7],3.78 to 28.4 µM
same,mean graph midpoint value (MG_MID) of log10 TGI,Colon cancer cell lines; Colon panel,>−4.0
same,LC50,Colon cancer cell lines; Colon panel,> 100 µM
same,GI50,Colon cancer cell lines; [8],25.1 µM
same,GI50,Colon cancer cell lines; [9],5.48 to 7.13 µM
same,LC50,[1]; Melanoma panel,> 100 µM
same,GI50,[1]; [10],40.7 µM
same,GI50,[1]; [11],3.61 to 59.8 µM
same,mean graph midpoint value (MG_MID) of log10 TGI,[1]; Melanoma panel,>−4.0
same,LC50,[2]; Non-small cell lung panel,> 100 µM
same,GI50,[2]; [12],22.9 µM
same,GI50,[2]; [13],5.26 to 41.8 µM
same,mean graph midpoint value (MG_MID) of log10 TGI,[2]; Non-small cell lung panel,−4.01
same,LC50,[3]; Ovarian panel,> 100 µM
same,GI50,[3]; [14],29.5 µM
same,GI50,[3]; [15],3.85 to 56.1 µM
same,mean graph midpoint value (MG_MID) of log10 TGI,[3]; Ovarian panel,>−4.0
same,LC50,[4]; Prostate panel,> 100 µM
same,GI50,[4]; [16],10.2 µM
same,GI50,[4]; [17],3.66 to 27.9 µM
same,mean graph midpoint value (MG_MID) of log10 TGI,[4]; Prostate panel,>−4.0
same,CC50,Renal cancer cell lines; Renal panel,> 100 µM
same,GI50,Renal cancer cell lines; [18],25.1 µM
same,GI50,Renal cancer cell lines; [19],2.15 to 3.17 µM
same,mean graph midpoint value (MG_MID) of log10 TGI,Renal cancer cell lines; Renal panel,>−4.0
same,cells in G2/M phase,K562 (Leukemia) cells,14%
same,cells in G2/M phase,[5],21%
"COc1cc(OC)cc(-c2cncn2-c2ccc(-c3nc4cc(OC)c(OC)c(OC)c4s3)cc2)c1 [Compound 7d, 2-(4-(5-(3,5-Dimethoxyphenyl)-1H-imidazol-1-yl)phenyl)-5,6,7-trimethoxybenzo[d]thiazole]",Log10GI50,"HL-60 (TB); HL-60(TB), present compounds",−5.61
same,GI50,HL-60 (TB),2.43 µM
same,GI50,SR,7.14 µM
same,GI50,NCI-H226,21.7 µM
same,GI50,NCI-H23,9.56 µM
same,Log10GI50,"NCI-H23; NCI-H23, present compounds",−5.02 log10(M)
same,GI50,NCI-H460,7.46 µM
same,GI50,HCT-116,3.76 µM
same,GI50,SNB-75,15 µM
same,Log10GI50,"SNB-75; SNB-75, present compounds",−4.82
same,GI50,U251,5.44 µM
same,Log10GI50,"U251; U251, present compounds",−5.26
same,GI50,IGROV1,9.6 µM
same,GI50,OVCAR-3,6.07 µM
same,Log10GI50,"OVCAR-3; OVCAR-3, present compounds",−5.22
same,GI50,OVCAR-4,6.67 µM
same,GI50,NCI/ADR-RES,11 µM
same,Log10GI50,NCI/ADR-RES; NCI/ADR-RES (row head NCI/ADR-),−4.96
same,Log10GI50,NCI/ADR-RES; listed as head printed RES (second line of NCI/ADR-RES),−4.30
same,Log10GI50,"A498; A498, present compounds",>−4.0
same,GI50,A498,> 100 µM
same,GI50,SN12C,31.9 µM
same,Log10GI50,SN12C; present compounds,−4.50
same,GI50,UO-31,1.94 µM
same,Log10GI50,"UO-31; UO-31, present compounds",−5.71
same,GI50,T-47D,10.7 µM
same,mean graph midpoint value (MG_MID) of log10 TGI,Breast cancer cell lines; Breast panel,>−4.0
same,CC50,Breast cancer cell lines; Breast panel,> 100 µM
same,GI50,Breast cancer cell lines; [6],9.12 µM
same,GI50,Breast cancer cell lines; [7],4.02 to 20.9 µM
same,mean graph midpoint value (MG_MID) of log10 TGI,Colon cancer cell lines; Colon panel,>−4.0
same,LC50,Colon cancer cell lines; Colon panel,> 100 µM
same,GI50,Colon cancer cell lines; [8],9.12 µM
same,GI50,Colon cancer cell lines; [9],3.76 to 13.7 µM
same,LC50,[1]; Melanoma panel,> 100 µM
same,GI50,[1]; [10],9.33 µM
same,GI50,[1]; [11],2.85 to 31.6 µM
same,mean graph midpoint value (MG_MID) of log10 TGI,[1]; Melanoma panel,−4.02
same,LC50,[2]; Non-small cell lung panel,> 100 µM
same,GI50,[2]; [12],15.1 µM
same,GI50,[2]; [13],1.87 to 86.5 µM
same,mean graph midpoint value (MG_MID) of log10 TGI,[2]; Non-small cell lung panel,>−4.0
same,LC50,[3]; Ovarian panel,> 100 µM
same,GI50,[3]; [14],16.2 µM
same,GI50,[3]; [15],6.07 to 49.9 µM
same,mean graph midpoint value (MG_MID) of log10 TGI,[3]; Ovarian panel,−4.08
same,LC50,[4]; Prostate panel,> 100 µM
same,GI50,[4]; [16],10 µM
same,GI50,[4]; [17],3.17 to 31.1 µM
same,mean graph midpoint value (MG_MID) of log10 TGI,[4]; Prostate panel,>−4.0
same,CC50,Renal cancer cell lines; Renal panel,> 100 µM
same,GI50,Renal cancer cell lines; [18],14.8 µM
same,GI50,Renal cancer cell lines; [19],1.94 to 31.9 µM
same,mean graph midpoint value (MG_MID) of log10 TGI,Renal cancer cell lines; Renal panel,−4.03
same,cells in G2/M phase,K562 (Leukemia) cells,16%
same,cells in G2/M phase,[5],24%
